Experimental findings from paper PMC10877733, “Discovery and Characterization of VU0542270, the First Selective Inhibitor of Vascular Kir6.1/SUR2B KATP Channels” (Molecular Pharmacology, 2024) are described below.

A short description of the data set: Plasma binding by equilibrium dialysis, mouse. The format is in vitro ADME. The following applies: equilibrium dialysis 6 hours 37°C, read-out: Fu, plasma (mouse). On the procedure:
Determination of VU0542270 fraction unbound (fu) in plasma from mouse, rat, and human was conducted in vitro via equilibrium dialysis using high-throughput dialysis (HTD) membrane plates. Dialysis membranes (four paired strips per HTD assay) were hydrated as described by the manufacturer and inserted into the HTD plate, which was assembled and prepared for sample addition by the dispensing of blank buffer [Delbecco’s phosphate buffered saline (DPBS), 100 µL/well] into the “top half” of each membrane-split well. VU0542270 was diluted into plasma from each species (5 µM final concentration), which was aliquoted in triplicate to the “bottom half” of the prepared HTD plate wells. The HTD plate was sealed and incubated for 6 hours at 37°C. Following incubation, each well (both top and bottom halves) was transferred (20 µL) to the corresponding well of a 96-shallow-well (V-bottom) plate. […]
fu was calculated as (analyte to IS mass spectrometry (MS) peak area ratio from Trans-buffer side)/(analyte to IS MS peak area ratio from Cis-plasma side). Mean values for each species were calculated from three replicates.
(In equilibrium dialysis only unbound substance equilibrates across the membrane.)

With `Cc1nc(-c2cccs2)sc1CNC(=O)Nc1cccs1` [VU0542270], the fraction unbound at 6 h, 5 µM was 0.01.
